Data: patent US11000601B2, “Conjugated biological molecules, pharmaceutical compositions and methods” (OBI Pharma, Inc., priority 2016, dated 2021)
Where “and” joins values, the source holds several entries; their conditions need not be identical. Equal values may be shown once. Marks after values point to notes of the source that are not given here. Square brackets hold non-standard residues; d marks the D form. Peptide text beside a SMILES is read from it. * marks the point of attachment. Dolaproine = CO[C@@H]([C@@H]1CCCN1)[C@@H](C)C(=O)O; Dil = CC[C@H](C)[C@H](NC)[C@@H](CC(=O)O)OC; X1 = C[C@@H](N*)[C@@H](O)c1ccccc1; NMeV = CN[C@H](C(=O)O)C(C)C

Key:
[1] = tested on: NCI-N87 (ATCC CRL-5822) human gastric carcinoma; test: Xenograft tumor model of human gastric carcinoma NCI-N87 in female nu/nu mice: tumor volume, T/C, TGI; assay type: in vivo, mouse; details: for Tumor Volume, individual mouse: individual animals
Method: (§1) In a xenograft tumor model of human gastric carcinoma, viable NCI-N87 (ATCC CRL-5822) cells were subcutaneously (SC) implanted (2.5×10^6 cells/mL with matrigel (1:1) at 0.2 mL/mouse) into the right flank of female nu/nu mice. Tumor implanted mice were divided into seven treatment groups, each group containing eight animals, and one group containing five animals, and dose administrations were initiated one day after cell implantation (denoted as Day 1).
Viable human gastric carcinoma NCI-N87 (ATCC CRL-5822) cell line was purchased and cultured in Eurofins Panlabs Taiwan, Ltd. The cells were cultured in RPMI-1640 medium containing 10% fetal bovine serum (FBS) at 37° C. in 5% CO2 incubator and implanted subcutaneously in the right flank of each mouse.
(§2) Female nude (nu/nu) mice aged 5-6 weeks obtained from BioLasco Taiwan (under Charles River Laboratories Licensee) were used. The animals were housed in individually ventilated cages (IVC, 36 Mini Isolator system). The allocation for 3 animals was 27×20×14 in cm. All animals were maintained in a hygienic environment under controlled temperature (20-24° C.) and humidity (30%-70%) with 12-hour light/dark cycle. Free access to standard lab diet [MFG (Oriental Yeast Co., Ltd., Japan)] and autoclaved tap water in bottles were granted. All aspects of this work including housing, experimentation, and animal disposal were performed in general accordance with the “Guide for the Care and Use of Laboratory Animals: Eighth Edition” (National Academies Press, Washington, D.C., 2011) in our AAALAC-accredited laboratory animal facility. In addition, the animal care and use protocol was reviewed and approved by the IACUC at Eurofins Panlabs Taiwan, Ltd.
(§3) The tumor volumes, body weights, mortality, and signs of overt toxicity were monitored and recorded twice weekly for 100 days. Tumor growth inhibition was calculated as T/C (treatment/control)×100%. A T/C value≤42% compared to that of the vehicle control group was considered significant anti-tumor activity. Two-way ANOVA followed by Bonferroni test was used to ascertain the statistically significant significance of groups compared to respective vehicle control (*p<0.05).

[2] = Body weight, mortality and signs of overt toxicity in NCI-N87 implanted female nu/nu mice; assay type: in vivo, mouse
Method: as §1, §2, §3

[3] = Day 53, 0.191 mg/kg × 4 IP once weekly
[4] = 0.191 mg/kg × 4 IP once weekly, group mean
[5] = 0.191 mg/kg × 4 IP once weekly, individual mouse

## CC[C@H](C)[C@@H]([C@@H](CC(=O)N1CCC[C@H]1[C@H](OC)[C@@H](C)C(=O)N[C@H](C)[C@@H](O)c1ccccc1)OC)N(C)C(=O)[C@@H](NC(=O)[C@@H](NC)C(C)C)C(C)C [MMAE, monomethyl auristatin E] (H-[NMeV]V[Dil][Dolaproine]-X1)
[1]; [3]
  % T/C: 47%
  % TGI: 53%
  Tumor Volume, Mean: 639* mm^3
[1]; Day 53, 0.191 mg/kg × 4 IP once weekly, 0.191 mg/kg
  Tumor Volume, individual animal: 88 mm^3 and 682 mm^3 and 590 mm^3 and 581 mm^3 and 816 mm^3 and died and 1094 mm^3 and 620 mm^3
[1]; Day 57, 0.191 mg/kg × 4 IP (Once weekly), group mean
  Tumor Volume, Mean: 676 mm^3
[1]; Day 57, 0.191 mg/kg × 4 IP (Once weekly), 0.191 mg/kg
  Tumor Volume, individual mouse: 85 mm^3 and 694 mm^3 and 663 mm^3 and 627 mm^3 and 870 mm^3 and 1141 mm^3 and 650 mm^3
[1]; Day 60, 0.191 mg/kg × 4 IP (Once weekly), group mean
  Tumor Volume, Mean: 720 mm^3
[1]; Day 60, 0.191 mg/kg × 4 IP (Once weekly), 0.191 mg/kg
  Tumor Volume, individual mouse: 83 mm^3 and 745 mm^3 and 783 mm^3 and 664 mm^3 and 854 mm^3 and 1234 mm^3 and 676 mm^3
[1]; Day 64, 0.191 mg/kg × 4 IP (Once weekly), group mean
  Tumor Volume, Mean: 747 mm^3
[1]; Day 64, 0.191 mg/kg × 4 IP (Once weekly), 0.191 mg/kg
  Tumor Volume, individual mouse: 82 mm^3 and 765 mm^3 and 788 mm^3 and 702 mm^3 and 920 mm^3 and 1272 mm^3 and 703 mm^3
[1]; Day 67, 0.191 mg/kg × 4 IP (Once weekly), group mean
  Tumor Volume, Mean: 818 mm^3
[1]; Day 67, 0.191 mg/kg × 4 IP (Once weekly), 0.191 mg/kg
  Tumor Volume, individual mouse: 79 mm^3 and 883 mm^3 and 827 mm^3 and 726 mm^3 and 1070 mm^3 and 1300 mm^3 and 840 mm^3
[1]; Day 70, 0.191 mg/kg × 4 IP (Once weekly), group mean
  Tumor Volume, Mean: 846 mm^3
[1]; Day 70, 0.191 mg/kg × 4 IP (Once weekly), 0.191 mg/kg
  Tumor Volume, individual mouse: 76 mm^3 and 943 mm^3 and 870 mm^3 and 726 mm^3 and 1090 mm^3 and 1358 mm^3 and 859 mm^3
[1]; Day 74, 0.191 mg/kg × 4 IP (Once weekly), group mean
  Tumor Volume, Mean: 901 mm^3
[1]; Day 74, 0.191 mg/kg × 4 IP (Once weekly), 0.191 mg/kg
  Tumor Volume, individual mouse: 74 mm^3 and 1012 mm^3 and 909 mm^3 and 856 mm^3 and 1117 mm^3 and 1422 mm^3 and 916 mm^3
[1]; Day 78, 0.191 mg/kg × 4 IP (Once weekly), group mean
  Tumor Volume, Mean: 931 mm^3
[1]; Day 78, 0.191 mg/kg × 4 IP (Once weekly), 0.191 mg/kg
  Tumor Volume, individual mouse: 74 mm^3 and 1042 mm^3 and 955 mm^3 and 890 mm^3 and 1197 mm^3 and 1431 mm^3 and 928 mm^3
[1]; Day 81, 0.191 mg/kg × 4 IP (Once weekly), group mean
  Tumor Volume, Mean: 951 mm^3
[1]; Day 81, 0.191 mg/kg × 4 IP (Once weekly), 0.191 mg/kg
  Tumor Volume, individual mouse: 77 mm^3 and 1064 mm^3 and 961 mm^3 and 903 mm^3 and 1197 mm^3 and 1517 mm^3 and 935 mm^3
[1]; Day 85, 0.191 mg/kg × 4 IP (Once weekly), group mean
  Tumor Volume, Mean: 1002 mm^3
[1]; Day 85, 0.191 mg/kg × 4 IP (Once weekly), 0.191 mg/kg
  Tumor Volume, individual mouse: 77 mm^3 and 1097 mm^3 and 1033 mm^3 and 933 mm^3 and 1331 mm^3 and 1558 mm^3 and 988 mm^3
[1]; Day 88, 0.191 mg/kg × 4 IP (Once weekly), group mean
  Tumor Volume, Mean: 1032 mm^3
[1]; Day 88, 0.191 mg/kg × 4 IP (Once weekly), 0.191 mg/kg
  Tumor Volume, individual mouse: 74 mm^3 and 1104 mm^3 and 1117 mm^3 and 933 mm^3 and 1346 mm^3 and 1626 mm^3 and 1023 mm^3
[1]; Day 91, 0.191 mg/kg × 4 IP (Once weekly), group mean
  Tumor Volume, Mean: 1037 mm^3
[1]; Day 91, 0.191 mg/kg × 4 IP (Once weekly), 0.191 mg/kg
  Tumor Volume, individual mouse: 72 mm^3 and 1122 mm^3 and 1130 mm^3 and 933 mm^3 and 1346 mm^3 and 1636 mm^3 and 1023 mm^3
[1]; Day 95, 0.191 mg/kg × 4 IP (Once weekly), group mean
  Tumor Volume, Mean: 1060 mm^3
[1]; Day 95, 0.191 mg/kg × 4 IP (Once weekly), 0.191 mg/kg
  Tumor Volume, individual mouse: 68 mm^3 and 1192 mm^3 and 1184 mm^3 and 947 mm^3 and 1354 mm^3 and 1646 mm^3 and 1029 mm^3
[1]; Day 98, 0.191 mg/kg × 4 IP (Once weekly), group mean
  Tumor Volume, Mean: 1101 mm^3
[1]; Day 98, 0.191 mg/kg × 4 IP (Once weekly), 0.191 mg/kg
  Tumor Volume, individual mouse: 68 mm^3 and 1215 mm^3 and 1265 mm^3 and 1061 mm^3 and 1398 mm^3 and 1656 mm^3 and 1043 mm^3
[1]; Day 100, 0.191 mg/kg × 4 IP (Once weekly), group mean
  Tumor Volume, Mean: 1106 mm^3
[1]; Day 100, 0.191 mg/kg × 4 IP (Once weekly), 0.191 mg/kg
  Tumor Volume, individual mouse: 62 mm^3 and 1254 mm^3 and 1273 mm^3 and 1076 mm^3 and 1444 mm^3 and 1590 mm^3 and 1043 mm^3
[2]; 0.191 mg/kg × 4 IP (Once weekly), mouse No. 6, Day 57-Day 100
  Mortality (animal entered as died in tumor volume table): died
[2]; [4]
  Body Weight Day 1, Mean: 21.9 g
  Body Weight Day 4, Mean: 20.4 g
  Body Weight Day 8, Mean: 22.1 g
  Body Weight Day 11, Mean: 22.6 g
  Body Weight Day 15, Mean: 23.4 g
  Body Weight Day 18, Mean: 23.6 g
  Body Weight Day 25, Mean: 24.0 g
  Body Weight Day 32, Mean: 25.1 g
  Body Weight Day 36, Mean: 25.1 g
  Body Weight Day 50, Mean: 26.0 g
[2]; [5]
  Body Weight Day 1: 20 g (2×) and 22 g (3×) and 24 g (2×) and 21 g
  Body Weight Day 4: 18 g and 19 g (2×) and 22 g and 21 g and 20 g and died and 24 g
  Body Weight Day 8: 22 g (3×) and 23 g (2×) and died and 24 g and 19 g
  Body Weight Day 11: 22 g (2×) and 23 g (2×) and 25 g and 24 g and died and 19 g
  Body Weight Day 15: 24 g (2×) and 23 g (3×) and 25 g and died and 22 g
  Body Weight Day 18: 24 g (3×) and 22 g (2×) and 23 g and 26 g and died
  Body Weight Day 22: 24 g (3×) and 22 g and 25 g (3×) and died
  Body Weight Day 25: 24 g (4×) and 22 g and 25 g (2×) and died
  Body Weight Day 29: 25 g (3×) and 24 g and 26 g (3×) and died
  Body Weight Day 32: 25 g (2×) and 23 g and 24 g and 27 g and 26 g (2×) and died
  Body Weight Day 36: 26 g (2×) and 24 g and 25 g (4×) and died
  Body Weight Day 39: 26 g (6×) and 24 g and died
  Body Weight Day 43: 26 g (6×) and 24 g and died
  Body Weight Day 46: 26 g (3×) and 25 g and 27 g (3×) and died
  Body Weight Day 50: 26 g (4×) and 24 g and 27 g (2×) and died
  Body Weight Day 53: 27 g (4×) and 24 g and died and 26 g and 28 g
[2]; animal No. 6, Day 4-Day 25, 0.191 mg/kg × 4 IP once weekly
  Mortality (animal recorded as died in tumor volume table): died
